Assay results taken from US20050175762A1, “Methods and compositions to inhibit lipid oxidation” (priority 2003, published 2005).

Columns and labels:
[1] = DPPH radical scavenging by spectrophotometry; format: biochemical; settings: 30 min at 22 to 24° C., 515 nm, concentrations as quercetin equivalent, read-out: SC50 (concentration required to obtain 50% of a maximum scavenging capacity)
Protocol: After a 30 min incubation at 22 to 24° C., the resultant absorbance was recorded at 515 nm by a double-beam spectrophotometer model UV-2401 (Shimadzu Scientific Instruments Inc., Columbia, Md.). Ascorbate, propyl gallate, and quercetin were used as reference standard. The scavenging capacity%=[1-((Abs of cranberry crude extract/fractions-Abs of blank)/Abs control)]*100. […] Plant Sci. 2002, 163, 1161-1168). The cranberry crude extract/fractions were evaluated and compared with ascorbic acid, propyl gallate and quercetin for the free radical scavenging activity toward stable DPPH radicals. […] Specifically, in referring to FIG. 21, the final concentration of DPPH radical was […].

[2] = test system: trout hemoglobin-mediated lipid oxidation in washed cod muscle; assay: Hemoglobin-mediated lipid oxidation in washed cod muscle (TBARS); settings: for Effect on lipid oxidation in washed cod muscle: hemoglobin-mediated, 2° C. storage, FIG. 22 and 23; for Inhibition in TBARS formation: washed cod muscle
Protocol: Furthermore, cod muscle and trout hemoglobin were prepared according to the method described by Richards et al., Role of deoxyhemoglobin in lipid oxidation of washed cod muscle mediated by trout, poultry and beef hemoglobins. Meat Sci. 2002, 62, 157-163. The hemoglobin-mediated lipid oxidation system consisted of washed cod muscle, cranberry crude extract/fractions, streptomycin sulfate, and trout hemoglobin. The final concentration of hemoglobin and cranberry extract/fractions was 12 and 37/74 μmol per kg washed cod muscle, respectively. A control sample containing no cranberry crude extract/fractions was also prepared. The final moisture content of washed cod muscle was adjusted to 90%. pH was adjusted to between 6.10 and 6.30 by 1 M NaOH or HCl. All samples were stored at 2° C. for 7 to 9 days.
The progress of lipid oxidation in washed cod muscle was followed by periodically removing samples and quantifying TBARS formed by a modified method of Buege and Aust Microsomal lipid peroxidation. Method. Enzymol. 1978, LII, 302-310 as described by Richards et al., Role of deoxyhemoglobin in lipid oxidation of washed cod muscle mediated by trout, poultry and beef hemoglobins. Meat Sci. 2002, 62, 157-163. Lag time (LT) is defined as extension in stability compared to control sample which was stable for around 1 day. All trials in this study were conducted in duplicate or triplicate and in each trial triplicate determinations were performed

[3] = test system: salmon oil-in water emulsion; assay: Lipid oxidation in salmon oil-in water emulsion; settings: 400 ppm, 10% salmon oil, 0.5% tween 20, pH 3.0, 27° C.
Protocol: Similarly, applicants have tested cranberry fractions in various emulsion systems (FIGS. 7-0). More specifically, FIG. 7, illustrates the effect of quercetin on lipid oxidation in salmon oil-in water emulsion. […] The emulsion consisted of 10% (w/w) salmon oil, 0.5% (w/w) tween 20 and 10 mM pH 3.0 acetate-imidazole buffer. Quercetin was added into the emulsion samples at the level of 400 ppm. The emulsion samples were oxidized in a shaker oven at 27° C. Likewise, FIG. 8, also illustrates the effect of cranberry fractions on lipid oxidation in salmon oil-in water emulsion. However, cranberry fractions and quercetin were added into the emulsion samples at the level of 400 ppm. Also, FIGS. 9 and 10 illustrate the effect of cranberry fractions on lipid oxidation in salmon oil-in water emulsion. However, 10% salmon oil was used in both fraction 4 and control treated samples, whereas 9.2% oil was used in the fraction 2 treated sample.

[4] = test system: mechanically separated turkey (MST); assay: Lipid oxidation (TBARS) in mechanically separated turkey during iced storage

EC50 [1] [µM]	SMILES	Effect on lipid oxidation in washed cod muscle [2]	Effect on lipid oxidation in emulsion systems [3]	Inhibition on lipid oxidation of MST ([4]; 210 umol quercetin/kg MST, 2° C. storage)	Inhibition of lipid oxidation in MST ([4]; quercetin at 50 umol/kg, precipitate added on a quercetin equivalent basis (FIG. 5))	Inhibition in TBARS formation ([2]; 37 μmol quercetin per kg) [%]	Inhibition in TBARS formation ([2]; 74 mmole quercetin equivalent)
12.2	O=C1O[C@H]([C@@H](O)CO)C(O)=C1O [ascorbic acid]	–	–	–	–	–	–
5.07	CCCOC(=O)c1cc(O)c(O)c(O)c1 [propyl gallate]	stable throughout the entire storage period	–	–	–	–	–
4.89	O=c1c(O)c(-c2ccc(O)c(O)c2)oc2cc(O)cc(O)c12 [quercetin]	as effective as 37 mmole propyl gallate	In 2 of 3 trials, quercetin was inhibitory	Effective inhibition	highly effective	83	Up to 94%
